Marks after values point to notes of the source that are not given here.
How the values were obtained:
[1] = tested on: MDCK cells; conditions: Previously reported values in MDCK cells, A to B; cited from earlier work
[2] = target: KDM5B (NanoLuc-KDM5B) (Homo sapiens, UniProt Q9UGL1); test: NanoBRET cellular target engagement assay in HEK293 cells
[3] = target: T1, KDM5B (Homo sapiens, UniProt Q9UGL1, A373G/DEL102-140/DEL143-371/Q372G); test: KDM5B 2-OG competition assay (AlphaScreen); assay type: biochemical; conditions: for IC50: AlphaScreen in vitro activity in KDM5B
T1 construct: A KDM5B construct encoding regions Phe26-Ile770 was amplified from an OriGene cDNA clone; 6x-histidine tag (TEV-cleavable) (N, cleaved yes); made in house; host or cells: Sf9 insect cells (baculovirus)
T1 sequence (Q9UGL1 with tags, fused parts or gaps DEL102-140/DEL143-371/Q372G/A373G): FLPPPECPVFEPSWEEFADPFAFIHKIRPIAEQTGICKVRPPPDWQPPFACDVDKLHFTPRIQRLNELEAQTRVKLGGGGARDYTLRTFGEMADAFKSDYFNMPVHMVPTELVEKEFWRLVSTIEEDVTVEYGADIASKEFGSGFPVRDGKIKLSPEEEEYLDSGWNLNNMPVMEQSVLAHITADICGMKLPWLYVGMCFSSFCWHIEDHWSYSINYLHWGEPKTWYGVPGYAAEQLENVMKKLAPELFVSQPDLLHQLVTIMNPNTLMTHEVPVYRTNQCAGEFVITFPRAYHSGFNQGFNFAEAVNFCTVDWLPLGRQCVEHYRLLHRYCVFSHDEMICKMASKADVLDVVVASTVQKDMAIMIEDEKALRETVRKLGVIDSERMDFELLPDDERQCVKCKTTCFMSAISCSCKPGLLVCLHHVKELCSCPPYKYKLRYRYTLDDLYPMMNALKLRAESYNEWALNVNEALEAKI
Method: (§1) KDM alpha screen selectivity
(§2) Inhibition of histone demethylases was assessed using the histone demethylase AlphaScreen assay (Amplified Luminescence Proximity Homogenous Assay) as previously reported.[4] The basis of this assay for lysine demethylases have been widely described.[5] In brief, the assay was performed in 384-well plate format using white proxiplates (PerkinElmer), and transfer of titrations of compounds (100 nl) was performed using an ECHO 550 acoustic dispenser […]
(§3) Tween- 20) containing the appropriate demethylase enzyme (see Supplementary table 1 for final concentrations) was transferred to each well of a 384-well proxiplate with a Multidrop™ Combi Reagent Dispenser, and the enzymes allowed to pre-incubate for 120 minutes with compound (final concentration of DMSO was 1%). After that time, the enzyme reaction was initiated by addition of 5 µl of a substrate mix consisting of Ketoglutarate (2-OG), Ferrous Ammonium Sulphate (FAS), L-Ascorbic Acid (LAA) and biotinylated peptide substrate (see Supporting table X for final assay concentrations) and the reaction incubated for the indicated time at room temperature. Reaction was stopped by the addition of 5 μl of assay buffer containing EDTA (7.5 mM) and NaCl (400 mM). Streptavidin Donor beads (0.08 mg/ml) and Protein-A conjugated acceptor beads (0.08 mg/ml) (AlphaScreen General IgG detection kit was from Perkin Elmer) were pre-incubated for 1 hour with an antibody to the product methyl mark (Supplementary Table 1) and the presence of biotin-H3-product was detected by addition of 5 µl of the pre-incubated AlphaScreen beads (final concentrations of 0.02 mg/ml with respect to acceptor and donor beads). Detection was allowed to proceed for 2 hour at room temperature and the assay plates read in a BMG Labtech Pherastar FS plate reader (excitation, 680 nm; emission, 570 […]
IC50(t) = Ki (1 + K ) . ( η . k .t − 1) (1)
KDM5B 2-OG competition assay
2-OG competition assay were performed as described for the general KDM5B AlphaScreen method above, varying the 2-OG concentrations from a range of 1mM to 0.5 μM. Data were normalized to the no enzyme control and the IC50 determined from the nonlinear regression curve fit using GraphPad Prism 7.

[4] = target: T2, KDM5B (Homo sapiens, UniProt Q9UGL1); test: Timecourse KDM5B AlphaScreen inhibition and kinact/Ki calculation; assay type: biochemical
T2 sequence (Q9UGL1 26-101 limits assumed): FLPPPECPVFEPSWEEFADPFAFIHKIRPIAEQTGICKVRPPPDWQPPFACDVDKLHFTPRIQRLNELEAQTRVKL
T2 sequence (Q9UGL1 374-770 limits assumed): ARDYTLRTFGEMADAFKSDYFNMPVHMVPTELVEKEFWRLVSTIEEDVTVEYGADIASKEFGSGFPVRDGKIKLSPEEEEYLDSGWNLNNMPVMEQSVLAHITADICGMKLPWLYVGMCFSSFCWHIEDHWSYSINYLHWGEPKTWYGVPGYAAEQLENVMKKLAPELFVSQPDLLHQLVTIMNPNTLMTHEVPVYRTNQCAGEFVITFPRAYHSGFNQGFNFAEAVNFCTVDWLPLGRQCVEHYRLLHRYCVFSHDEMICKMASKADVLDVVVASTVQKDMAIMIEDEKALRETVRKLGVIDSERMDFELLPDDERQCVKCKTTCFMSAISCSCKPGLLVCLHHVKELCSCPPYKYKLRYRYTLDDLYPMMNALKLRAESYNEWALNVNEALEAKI
Method: These parameters were calculated by using an established method to derive K i and k inact directly from time‐dependant IC50 values (Table S1). […]
as §1, §2
as §3, with “570 nm). Data were normalized to the no enzyme control and the IC50 determined from the nonlinear regression curve fit” for “570”
Timecourse KDM5B inhibition and Kinact/Ki calculations
The timecourse alphascreen assay was performed using the conditions described in the AlphaScreen section for KDM5B but with different pre-incubation times (from 0 to 120 min) for the enzyme with compound. Data were normalized to the no enzyme control and the IC50 for each timepoint was determined from the nonlinear regression curve fit using GraphPad Prism 7. The Ki and kinact were calculated through a least squares fit of the obtained IC50 at the different timepoints into the equation below which was derived by Krippendorff et al.[6] S is the H3K4me3 peptide substrate concentration of 0.1 µM and KM is the Michaelis-Menten constant for the substrate of 0.5 µM. XLFit software was used to compute the values of Ki and kinact. […]

[5] = target: T1, KDM5B; test: Covalent binding by MS (RapidFire intact mass, peptide mapping), KDM5B
[6] = Caco-2 permeability; assay type: in vitro ADME; conditions: human, Caco-2, Caco‐2 cells, A to B
[7] = tested on: KDM5B; conditions: previously reported value, cited from earlier work

KDM5B (NanoLuc-KDM5B), sequence (Q9UGL1 whole entry): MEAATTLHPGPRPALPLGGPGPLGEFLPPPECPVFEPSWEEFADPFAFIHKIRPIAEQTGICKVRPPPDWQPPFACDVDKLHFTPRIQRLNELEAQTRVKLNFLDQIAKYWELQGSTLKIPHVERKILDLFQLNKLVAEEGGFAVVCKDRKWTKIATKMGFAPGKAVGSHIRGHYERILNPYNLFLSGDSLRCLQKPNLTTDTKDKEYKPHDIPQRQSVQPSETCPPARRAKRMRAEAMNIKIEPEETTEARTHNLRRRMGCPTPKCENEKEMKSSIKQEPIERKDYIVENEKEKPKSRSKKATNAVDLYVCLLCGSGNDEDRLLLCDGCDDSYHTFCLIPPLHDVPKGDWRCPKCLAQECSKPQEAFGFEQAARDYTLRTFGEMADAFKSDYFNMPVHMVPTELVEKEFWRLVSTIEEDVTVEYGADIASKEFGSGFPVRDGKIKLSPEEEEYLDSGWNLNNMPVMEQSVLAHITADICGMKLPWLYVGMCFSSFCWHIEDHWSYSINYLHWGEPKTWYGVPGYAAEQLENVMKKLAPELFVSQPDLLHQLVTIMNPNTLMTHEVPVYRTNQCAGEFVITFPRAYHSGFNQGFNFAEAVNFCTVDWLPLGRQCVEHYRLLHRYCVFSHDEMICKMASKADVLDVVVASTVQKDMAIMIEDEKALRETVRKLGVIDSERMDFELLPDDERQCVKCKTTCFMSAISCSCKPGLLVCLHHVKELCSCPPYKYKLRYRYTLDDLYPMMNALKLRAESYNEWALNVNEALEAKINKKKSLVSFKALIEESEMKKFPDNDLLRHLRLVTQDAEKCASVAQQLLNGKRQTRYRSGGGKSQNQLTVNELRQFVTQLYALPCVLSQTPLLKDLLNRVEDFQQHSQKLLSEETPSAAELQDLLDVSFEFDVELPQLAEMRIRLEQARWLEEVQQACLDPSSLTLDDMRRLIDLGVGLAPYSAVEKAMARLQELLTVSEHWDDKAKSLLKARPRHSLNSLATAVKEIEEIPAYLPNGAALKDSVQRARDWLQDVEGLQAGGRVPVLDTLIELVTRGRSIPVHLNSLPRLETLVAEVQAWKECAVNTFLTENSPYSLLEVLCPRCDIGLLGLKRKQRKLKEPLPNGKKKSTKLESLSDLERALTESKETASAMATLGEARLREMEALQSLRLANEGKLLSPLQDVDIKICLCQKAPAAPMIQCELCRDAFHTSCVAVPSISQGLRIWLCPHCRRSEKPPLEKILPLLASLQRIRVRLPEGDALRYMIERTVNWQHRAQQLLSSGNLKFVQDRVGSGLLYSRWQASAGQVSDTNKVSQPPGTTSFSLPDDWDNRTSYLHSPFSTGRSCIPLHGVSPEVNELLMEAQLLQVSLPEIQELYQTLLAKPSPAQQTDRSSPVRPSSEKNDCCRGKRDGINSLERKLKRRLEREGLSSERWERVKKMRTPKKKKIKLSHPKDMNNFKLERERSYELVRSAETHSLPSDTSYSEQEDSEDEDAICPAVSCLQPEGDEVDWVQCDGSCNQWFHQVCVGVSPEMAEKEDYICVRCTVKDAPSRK

Structure (SMILES) | P app [1] | IC50 [2] | drop in potency with 2-OG concentration ([3]; 2-OG from 0.5 μM up to 1000 μM) | IC50 ([3]; IC50 (2‐OG 1 μM), 2-OG 1 μM) | IC50 ([3]; IC50 (2‐OG 1 mM), 2-OG 1 mM) | Ki [4] | k inact/K i [4] | kinact [4] | kinact/KI ([4]; Table S1) | inhibitor reactive residue in KDM5B (peptide mapping, LCMS/MS) ([5]; digestion of protein–inhibitor adduct) | covalent binding to KDM5B by intact MS ([5]; protein 1 μM, compound 10 μM, 2 hours, 37 °C) | Papp A→B [6] | 2‐OG shift [7] | IC50 ([7]; read-out: IC50 (2‐OG 1 μM), KDM5B)
CC(C)c1c(-c2cnn(C(C)(C)C)c2)[nH]c2c(C#N)cnn2c1=O [Compound 1, reference compound] | 7.5^[c] 10^−6 cm s^−1 | 0.34 µM | 8 fold | 0.015 µM | 0.377 µM |  |  |  |  |  |  |  |  | 
C=CC(=O)N1CCN(CCc2cnn(-c3nccc4c(=O)[nH]cnc34)c2)CC1 [Compound 3] |  | > 30 µM |  | 0.184 µM |  | 0.834 ± 0.079 µM | 1400 M⁻¹ s⁻¹ | 0.0012 ± 1.3e-05 s⁻¹ | 1400 ± 20 M⁻¹ s⁻¹ | binding specifically to the desired C480 | major peak relating to protein–inhibitor adduct | < 1.5 ×10⁻⁶ cm/s |  | 
CC(C)c1c(-c2ccccc2)[nH]c2c(C#N)cnn2c1=O [CPI‐455] | 17.2^[c] 10^−6 cm s^−1 | 0.4 µM |  |  |  |  |  |  |  |  |  |  | 2.0^[c] | 0.003 µM
